What all share (experiment): DTP human tumour cell line panel, 48 h
For assay [1], the system named is MDA-N.
Assay [2] has as its system ACHN.
The subject of assay [3] is SK-MEL-5.
The test system of assay [4] is HL-60.
For assay [5], the system named is DU-145.
Assay [6] relates to HCT-15.
The test system of assay [7] is SK-MEL-2.
For assay [8], the system named is KM12.
Assay [9] relates to SF-268.
Assay [10] relates to 786-0.
Assay [11] has as its system SW-620.
In assay [12] the test system is M14.
In assay [13] the test system is A549.
The test system of assay [14] is UACC-257.
Assay [15] has as its system SNB-19.
Assay [16] relates to U-251.
The test system of assay [17] is MOLT-4.
Assay [18] deals with SK-MEL-28.
Assay [19] has as its system HCC 2998.

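Step 1: Grow cells in 96-well plates. Step 2: Expose to compound for 48 hours at 5 concentrations. Step 3: Interpolate endpoints linearly; if unreached, use highest concentration. At the GI50, growth is halved.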 Calls of active or inactive are those of the source. Cut-off read from the data, not from the text of the source: active = GI50 up to about 1.1 µM and inactive = higher.

In the case of `CN1/C(=C/C=C/C=C/C=C2C(=O)c3ccccc3C2=O)C(C)(C)c2ccccc21`, the GI50 in assay [1] is 35.6 µM (inactive); in assay [2] it was 25.8 µM (inactive); in [3], 18.5 µM (inactive); in [4], 36.6 µM (inactive); in assay [5], 43.4 µM (inactive); in assay [6], 40.2 µM. For the same compound, the GI50 is 20.3 µM (inactive) in assay [7]; 76.9 µM (inactive) in assay [8]; 43.3 µM (inactive) in assay [9]; > 100 µM (inactive) in assay [10]; > 100 µM (inactive) in assay [11]; 37.5 µM (inactive) in [12]. Also, the GI50 in assay [13] was 7 µM (inactive); in assay [14], 17.5 µM (inactive); in assay [15], > 100 µM (inactive).
In the case of `O=C(O)c1cc2ccccc2c(/N=N/c2ccccc2)c1O`, the GI50 in assay [16] is 12.8 µM (inactive); in assay [1], 19.1 µM (inactive); in [2], 26.2 µM (inactive); in [17], 92.7 µM (inactive); in assay [3], 5.47 µM (inactive); in [4], 10 µM (inactive). Also, the GI50 is 14.5 µM (inactive) in [5]; 27.9 µM in [6]; > 10 µM (inactive) in [7]; 14.9 µM (inactive) in assay [8]; 29.8 µM (inactive) in assay [18]; 30 µM (inactive) in [9]. In addition, the GI50 in assay [10] is 33.5 µM (inactive); in assay [11], 23.8 µM (inactive); in assay [12] it was 14.9 µM (inactive); in [13], 18.1 µM (inactive); in assay [14], 15.6 µM (inactive); in [15], 26.1 µM (inactive).
In the case of `CCOP(=O)(Nc1ccccc1P(=O)(OCC)OCC)OCC`, the GI50 in assay [16], in [19], in assay [1], in assay [2], in assay [17] and in [3] was > 100 µM (inactive) throughout. Besides, the GI50 in assay [5] was > 100 µM (inactive); in [6], > 100 µM; in assay [7] it was > 100 µM (inactive); in [8] it was > 100 µM (inactive); in [18], > 100 µM (inactive); in [9], > 100 µM (inactive). For the same compound, the GI50 in [10], in assay [11], in [12], in assay [13], in assay [14] and in assay [15] was > 100 µM (inactive) throughout.
As for `C[As+](C)(c1ccc(Br)c([N+](=O)[O-])c1)c1ccc(Br)c([N+](=O)[O-])c1`, the GI50 in assay [16] is > 100 µM (inactive); in assay [19], > 100 µM (inactive); in assay [1] it was > 100 µM (inactive); in assay [2], > 100 µM (inactive); in assay [17], > 100 µM (inactive); in assay [3], 9.12 µM (inactive). The GI50 in assay [5] was > 100 µM (inactive); in assay [6] it was > 100 µM; in [7], > 100 µM (inactive); in [8], > 100 µM (inactive); in [18], 27.9 µM (inactive); in [9], > 100 µM (inactive). The GI50 in assay [10], in assay [11], in assay [12], in assay [13], in assay [14] and in assay [15] was > 100 µM (inactive) throughout.
Turning to `COC(=O)Nc1nc2cc(NS(=O)(=O)c3ccc(F)cc3)ccc2[nH]1`, the GI50 in assay [16] was 19.1 µM (inactive); in assay [1], 2.14 µM (inactive); in [2], 42.2 µM (inactive); in assay [17], 6.75 µM (inactive); in assay [3], 5.77 µM (inactive); in [4] it was 4.03 µM (inactive). Moreover, the GI50 was 39.2 µM (inactive) in assay [5]; 8.22 µM in [6]; 31 µM (inactive) in [7]; 4.43 µM (inactive) in assay [8]; 9.75 µM (inactive) in assay [18]; 72.6 µM (inactive) in assay [9]. The GI50 in assay [10] is 40 µM (inactive); in assay [11], 6.27 µM (inactive); in assay [12], 7.48 µM (inactive); in assay [13], 37.2 µM (inactive); in [15], 6.46 µM (inactive).
Consider `CC(CCCCNC(=O)OC(C)(C)C)NC(=O)NC(C)CCCCNC(=O)OC(C)(C)C` (centres undefined), for which the GI50 in assay [16] was > 100 µM (inactive); in assay [1], 72.6 µM (inactive); in [2], > 100 µM (inactive); in assay [17] it was 41.8 µM (inactive); in assay [3] it was 30 µM (inactive); in [4], 39 µM (inactive). The GI50 is > 100 µM (inactive) in [5]; > 100 µM in assay [6]; > 100 µM (inactive) in assay [8]; > 100 µM (inactive) in [18]; > 100 µM (inactive) in assay [9]; > 100 µM (inactive) in assay [10]. Further, the GI50 in assay [11] is > 100 µM (inactive); in assay [12], > 100 µM (inactive); in assay [13] it was > 100 µM (inactive); in assay [14], 43.5 µM (inactive); in assay [15], > 100 µM (inactive).
Regarding `Cc1ccc(O)c(C2=CC(c3cccc(Br)c3)SC(=N)N2)c1` (centres undefined), the GI50 in assay [16] is 17.5 µM (inactive); in assay [1], 19.7 µM (inactive); in [2], 23.3 µM (inactive); in assay [17], 18.9 µM (inactive); in assay [3], 17 µM (inactive); in assay [4] it was 29 µM (inactive). Moreover, the GI50 is 34.5 µM (inactive) in assay [5]; 14.5 µM in [6]; 18.2 µM (inactive) in [7]; 27 µM (inactive) in assay [8]; 28.8 µM (inactive) in assay [9]; 23.7 µM (inactive) in [10]. Moreover, the GI50 is 28.4 µM (inactive) in assay [11]; 24.3 µM (inactive) in assay [12]; 25.8 µM (inactive) in assay [13]; 20.1 µM (inactive) in assay [14]; 13.6 µM (inactive) in assay [15].
With `COc1cc(OC)cc(-n2c(N)c(-c3nc4ccccc4s3)c3ccc([N+](=O)[O-])cc3c2=O)c1`, the GI50 in [16] was 34.1 µM (inactive); in [19], 84.5 µM (inactive); in [1], > 100 µM (inactive); in [2], 12.5 µM (inactive); in assay [3] it was 45.8 µM (inactive); in assay [4] it was 0.208 µM (active). For the same compound, the GI50 in assay [5] was 43.8 µM (inactive); in assay [6], 61.1 µM; in assay [8] it was 56.9 µM (inactive); in [18], > 100 µM (inactive); in [9], 57 µM (inactive); in assay [10], 13.1 µM (inactive). Besides, the GI50 is > 100 µM (inactive) in assay [11], > 100 µM (inactive) in assay [14] and 18.1 µM (inactive) in assay [15].
As to `CCOC(=O)c1c(N2CCOCC2)[nH]c(=O)c(C(c2ccc(Cl)c([N+](=O)[O-])c2)c2c(O)c(C(=O)OCC)c(N3CCOCC3)[nH]c2=O)c1O`, the GI50 in assay [16] was 19.6 µM (inactive); in assay [19], > 100 µM (inactive); in [1], 26.1 µM (inactive); in assay [2], 55.1 µM (inactive); in [17], 25.2 µM (inactive); in [3] it was 24.3 µM (inactive). Besides, the GI50 was 22.9 µM (inactive) in assay [5]; > 100 µM in assay [6]; > 100 µM (inactive) in [8]; 42.6 µM (inactive) in assay [18]; 44.2 µM (inactive) in assay [9]; 28.1 µM (inactive) in assay [10]. The GI50 in assay [11] was 23.4 µM (inactive); in assay [12], 20.7 µM (inactive); in [13], > 100 µM (inactive); in [14], 70 µM (inactive); in assay [15] it was 26.5 µM (inactive).
On to `CC(=O)NC1C(OC(C)C(=O)NC(C(=O)NC(CCC(=O)NCCCNC2c3ccccc3Nc3cccc([N+](=O)[O-])c32)C(N)=O)C(C)C)C(O)C(CO)OC1(C)OCc1ccccc1` (centres undefined), for which the GI50 in assay [16] was 1.39 µM (inactive); in [19], 0.671 µM (active); in [1], 0.634 µM (active); in [2], 0.621 µM (active); in assay [17] it was 0.355 µM (active); in assay [3] it was 0.198 µM (active). For the same compound, the GI50 is 0.264 µM (active) in [5]; 0.463 µM in assay [6]; 1.22 µM (inactive) in assay [7]; 1.77 µM (inactive) in assay [8]; 0.998 µM (active) in [9]; 0.536 µM (active) in assay [10]. Further, the GI50 in assay [11] is 0.291 µM (active); in [12], 1.18 µM (inactive); in assay [13], 0.399 µM (active); in assay [14], 2.33 µM (inactive); in assay [15], 1.56 µM (inactive).
Take `CSCCC(C(=O)O)N(C)C` (centres undefined): the GI50 in assay [16], in assay [1], in [2], in assay [3], in assay [4] and in [5] was > 100 µM (inactive) throughout. The GI50 in [6] is > 100 µM; in assay [7] it was > 100 µM (inactive); in assay [8] it was > 100 µM (inactive); in assay [18], > 100 µM (inactive); in assay [9], > 100 µM (inactive); in assay [10], > 100 µM (inactive). For the same compound, the GI50 in [11], in [12], in assay [13], in assay [14] and in assay [15] was > 100 µM (inactive) each time.
For `CCCCOC(=O)C(NC(C(=O)OCCCC)c1cc(C(C)(C)C)c(O)c(C(C)(C)C)c1)c1cc(C(C)(C)C)c(O)c(C(C)(C)C)c1` (centres undefined), the GI50 is > 100 µM (inactive) in [16]; > 100 µM (inactive) in assay [1]; > 100 µM (inactive) in assay [2]; 75 µM (inactive) in [17]; > 100 µM (inactive) in assay [3]; > 100 µM (inactive) in [4]. Besides, the GI50 in [5] is > 100 µM (inactive); in [6] it was > 100 µM; in assay [7] it was > 100 µM (inactive); in [8] it was > 100 µM (inactive); in assay [18], > 100 µM (inactive); in assay [9], > 100 µM (inactive). In addition, the GI50 in assay [10], in assay [11], in [12], in [13], in assay [14] and in assay [15] was > 100 µM (inactive) in each case.

By GI50 is commonly meant the concentration giving 50% growth inhibition.

(Values after ChEMBL document CHEMBL1201862, “PubChem BioAssay data set” (2004).)
